# Patent US20250171437A1 (Agios Pharmaceuticals,Inc., priority 2022, published 2025)
# Biological target: T1, human PAH with the R408W mutation (A375 R408W cells) (Homo sapiens, UniProt P00439, R408W)
# T1 construct: expressed in transfected cells
# T1 sequence (P00439 1-452 R408W): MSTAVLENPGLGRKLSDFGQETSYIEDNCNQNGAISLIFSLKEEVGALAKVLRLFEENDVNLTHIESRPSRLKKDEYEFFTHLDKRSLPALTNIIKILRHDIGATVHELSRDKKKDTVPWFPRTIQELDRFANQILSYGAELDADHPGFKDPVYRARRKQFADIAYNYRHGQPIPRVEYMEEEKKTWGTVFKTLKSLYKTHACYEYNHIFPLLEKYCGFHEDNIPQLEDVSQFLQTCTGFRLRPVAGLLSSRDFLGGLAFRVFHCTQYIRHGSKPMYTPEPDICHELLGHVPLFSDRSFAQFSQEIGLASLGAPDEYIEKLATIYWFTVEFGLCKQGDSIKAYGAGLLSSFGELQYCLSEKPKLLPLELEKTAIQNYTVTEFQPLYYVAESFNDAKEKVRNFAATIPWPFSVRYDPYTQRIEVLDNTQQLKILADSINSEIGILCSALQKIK
# Test: Cell Based Phenylalanine Flux Assay
# Conditions: A375 R408W cells; 24 hrs with compound, then 20 μM sepiapterin and 800 μM 13C9,15N-Phenylalanine for 4 hours; 13C-Tyrosine by LC-MS; average where tested multiple times
# Outline: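 A375 cells stably expressing lentiviral human PAH R408W were treated with compounds (10-point 2-fold dilutions, 0.5% DMSO, duplicate) for 24 h at 37 °C. Then 20 μM sepiapterin and 800 μM 13C9,15N-Phe were added for 4 h; media 13C-Tyr was measured by LC-MS to give AC50.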
row,SMILES,AC50
1,"Cc1cccc2nc([C@@H]3c4nc[nH]c4CCN3C(=O)c3ccnn3C(F)(F)F)oc12 [Example 710, (S)-(4-(7-methylbenzo[d]oxazol-2-yl)-6,7-dihydro-1H-imidazo[4,5-c]pyridin-5(4H)-yl)(1-(trifluoromethyl)-1H-pyrazol-5-yl)methanone]",≤ 500 nM
2,"Cn1ccc(-c2nnc(C(=O)N3CCc4[nH]cnc4[C@H]3c3nc4cccc(F)c4o3)o2)n1 [Example 337, (S)-(4-(7-fluorobenzo[d]oxazol-2-yl)-6,7-dihydro-1H-imidazo[4,5-c]pyridin-5(4H)-yl)(5-(1-methyl-1H-pyrazol-3-yl)-1,3,4-oxadiazol-2-yl)methanone]",≤ 500 nM
3,"O=C(c1oc(-c2ccccn2)nc1C(F)F)N1CCc2[nH]cnc2[C@@H]1c1nc2cccc(F)c2o1 [Example 588, (R)-(4-(difluoromethyl)-2-(pyridin-2-yl)oxazol-5-yl)(4-(7-fluorobenzo[d]oxazol-2-yl)-6,7-dihydro-1H-imidazo[4,5-c]pyridin-5(4H)-yl)methanone]",≤ 500 nM
4,"COc1ccc(-c2nc(C(F)F)c(C(=O)N3CCc4[nH]cnc4[C@@H]3c3nc4cccc(F)c4o3)o2)nc1 [Example 615, (R)-(4-(difluoromethyl)-2-(5-methoxypyridin-2-yl)oxazol-5-yl)(4-(7-fluorobenzo[d]oxazol-2-yl)-6,7-dihydro-1H-imidazo[4,5-c]pyridin-5(4H)-yl)methanone]",≤ 500 nM
5,"Cn1nc(C(F)F)nc1C(=O)N1CCc2[nH]cnc2[C@@H]1c1nc2cccc(F)c2o1 [Example 286, (R)-(3-(difluoromethyl)-1-methyl-1H-1,2,4-triazol-5-yl)(4-(7-fluorobenzo[d]oxazol-2-yl)-6,7-dihydro-1H-imidazo[4,5-c]pyridin-5(4H)-yl)methanone]",1000 to 5000 nM
6,"Cn1cc(-c2nnc(C(=O)N3CCc4[nH]cnc4[C@@H]3c3nc4cc(F)cc(F)c4o3)o2)cn1 [Example 666, (R)-(4-(5,7-difluorobenzo[d]oxazol-2-yl)-6,7-dihydro-1H-imidazo[4,5-c]pyridin-5(4H)-yl)(5-(1-methyl-1H-pyrazol-4-yl)-1,3,4-oxadiazol-2-yl)methanone]",≤ 500 nM
7,"CC(C)(O)c1nc(C(F)F)c(C(=O)N2CCc3[nH]cnc3[C@@H]2c2nc3c(OC(F)(F)F)cccc3o2)o1 [Example 534, (R)-(4-(difluoromethyl)-2-(2-hydroxypropan-2-yl)oxazol-5-yl)(4-(4-(trifluoromethoxy)benzo[d]oxazol-2-yl)-6,7-dihydro-1H-imidazo[4,5-c]pyridin-5(4H)-yl)methanone]",≤ 500 nM
8,"CC(C)(O)C1CCN(c2ccc3c(C(=O)N4CCc5[nH]cnc5[C@H]4c4nc5cccc(F)c5o4)cnn3c2)CC1 [Example 368, (S)-(4-(7-fluorobenzo[d]oxazol-2-yl)-6,7-dihydro-1H-imidazo[4,5-c]pyridin-5(4H)-yl)(6-(4-(2-hydroxypropan-2-yl)piperidin-1-yl)pyrazolo[1,5-a]pyridin-3-yl)methanone]",500 to 1000 nM
9,"COc1cccc2oc([C@H]3c4nc[nH]c4CCN3C(=O)c3nnc(-c4ccccn4)o3)nc12 [Example 623, (R)-(4-(4-methoxybenzo[d]oxazol-2-yl)-6,7-dihydro-1H-imidazo[4,5-c]pyridin-5(4H)-yl)(5-(pyridin-2-yl)-1,3,4-oxadiazol-2-yl)methanone]",1000 to 5000 nM
10,"COCc1ccc2c(C(=O)N3CCc4[nH]cnc4[C@@H]3c3nc4c(F)cccc4o3)cnn2c1 [Example 276, (R)-(4-(4-fluorobenzo[d]oxazol-2-yl)-6,7-dihydro-1H-imidazo[4,5-c]pyridin-5(4H)-yl)(6-(methoxymethyl)pyrazolo[1,5-a]pyridin-3-yl)methanone]",≥ 5000 nM

# More lines, now with the values ahead:
row,AC50,SMILES
1,≤ 500 nM,"O=C(c1ocnc1C(F)(F)F)N1CCc2[nH]cnc2[C@H]1c1nc2ccc(F)cc2o1 [Example 161, (S)-(4-(6-fluorobenzo[d]oxazol-2-yl)-6,7-dihydro-1H-imidazo[4,5-c]pyridin-5(4H)-yl)(4-(trifluoromethyl)oxazol-5-yl)methanone]"
2,1000 to 5000 nM,"CC(C)(C)c1ncc(C(=O)N2CCc3[nH]cnc3[C@@H]2c2nc3cc(F)ccc3o2)s1 [Example 18, (R)-(2-(tert-butyl)thiazol-5-yl)(4-(5-fluorobenzo[d]oxazol-2-yl)-6,7-dihydro-1H-imidazo[4,5-c]pyridin-5(4H)-yl)methanone]"
3,500 to 1000 nM,"Cc1ccc2oc([C@@H]3c4nc[nH]c4CCN3C(=O)c3nnc(-c4cc[nH]n4)o3)nc2c1 [Example 355, (S)-(5-(1H-pyrazol-3-yl)-1,3,4-oxadiazol-2-yl)(4-(5-methylbenzo[d]oxazol-2-yl)-6,7-dihydro-1H-imidazo[4,5-c]pyridin-5(4H)-yl)methanone]"
4,500 to 1000 nM,"O=C(c1nnc(-c2ccccn2)o1)N1CCc2[nH]cnc2[C@H]1c1nc2c(F)cc(F)cc2o1 [Example 523, (S)-(4-(4,6-difluorobenzo[d]oxazol-2-yl)-6,7-dihydro-1H-imidazo[4,5-c]pyridin-5(4H)-yl)(5-(pyridin-2-yl)-1,3,4-oxadiazol-2-yl)methanone]"
5,1000 to 5000 nM,"O=C(c1cnn(CC(F)(F)F)c1C(F)F)N1CCc2[nH]cnc2[C@@H]1c1nc2cc(F)ccc2o1 [Example 184, (R)-(5-(difluoromethyl)-1-(2,2,2-trifluoroethyl)-1H-pyrazol-4-yl)(4-(5-fluorobenzo[d]oxazol-2-yl)-6,7-dihydro-1H-imidazo[4,5-c]pyridin-5(4H)-yl)methanone]"
6,1000 to 5000 nM,"Cc1ccc2c(C(=O)N3CCc4[nH]cnc4[C@H]3c3nc4cc(F)ccc4o3)cnn2c1 [Example 19, (S)-(4-(5-fluorobenzo[d]oxazol-2-yl)-6,7-dihydro-1H-imidazo[4,5-c]pyridin-5(4H)-yl)(6-methylpyrazolo[1,5-a]pyridin-3-yl)methanone]"
7,≤ 500 nM,"COc1cccc2nc([C@H]3c4nc[nH]c4CCN3C(=O)c3ocnc3C(F)F)oc12 [Example 458, (R)-(4-(difluoromethyl)oxazol-5-yl)(4-(7-methoxybenzo[d]oxazol-2-yl)-6,7-dihydro-1H-imidazo[4,5-c]pyridin-5(4H)-yl)methanone]"
8,500 to 1000 nM,O=C(c1ccnn1C(F)F)N1CCc2[nH]cnc2[C@H]1c1nc2cc(F)cc(F)c2o1 [Example 609]
9,1000 to 5000 nM,"C[C@@H](O)c1nc(C(F)F)c(C(=O)N2CCc3[nH]cnc3[C@@H]2c2nc3ccc(F)cc3o2)o1 [Example 240, (4-(difluoromethyl)-2-((R)-1-hydroxyethyl)oxazol-5-yl)((R)-4-(6-fluorobenzo[d]oxazol-2-yl)-6,7-dihydro-1H-imidazo[4,5-c]pyridin-5(4H)-yl)methanone]"
10,500 to 1000 nM,"O=C(CCc1ncco1)N1CCc2[nH]cnc2[C@H]1c1nc2cccc(F)c2o1 [Example 387, (S)-1-(4-(7-fluorobenzo[d]oxazol-2-yl)-6,7-dihydro-1H-imidazo[4,5-c]pyridin-5(4H)-yl)-3-(oxazol-2-yl)propan-1-one]"

# Same assay, conditions: A375 cells expressing R408W PAH; 24 hrs with compound, then 20 μM sepiapterin and 800 μM 13C9,15N-Phenylalanine for 4 hours; 13C-Tyrosine by LC-MS; average where tested multiple times
row,SMILES,AC50
1,"O=C(c1cn(-c2ccccn2)nc1Cl)N1CCc2[nH]cnc2[C@@H]1c1nc2cc(F)ccc2o1 (single isomer, unassigned)",≥ 5000 nM
2,CC1CN(C(=O)c2oc(C(C)(C)O)nc2C(F)F)C(c2nc3cc(F)ccc3o2)c2nc[nH]c21 (centres unmarked),1000 to 5000 nM

# The remaining lines, values ahead:
row,AC50,SMILES
1,≥ 5000 nM,Cc1ccc2oc(C3c4nc[nH]c4CCN3C(=O)c3nnc(C)o3)nc2c1 (centres unmarked)
2,1000 to 5000 nM,O=C(CCc1nccs1)N1CCc2[nH]cnc2C1c1nc2ccc(F)cc2o1 (centres unmarked)
3,≥ 5000 nM,O=C(CCc1nccs1)N1CCc2[nH]cnc2C1c1nc2ccc(Br)cc2o1 (centres unmarked)
4,1000 to 5000 nM,CC(C)(O)c1ncc(C(=O)N2CCc3[nH]cnc3C2c2nc3cc(F)ccc3o2)o1 (centres unmarked)
